Data on 1 molecule can be found in publication PMC8042910, “Adiponectin-mimetic novel nonapeptide rescues aberrant neuronal metabolic-associated memory deficits in Alzheimer’s disease” (Molecular Neurodegeneration, 2021).

Molecules are shown by their SMILES. Residues, ends and D or L forms follow the SMILES beside them.

The term half-life denotes the time needed for the level to fall by half in the phase considered.

For data set [1], the system named is activated caspase-3 and cleaved PARP-1. The data set can be described thus: Apoptotic and neurodegenerative markers in APP/PS1 mouse brain, immunoblot. It counts as in vivo. To be noted: APP/PS1 mice, 5 μg/g, i.p., alternating days for 45 days, n = 8/group. As to the method:
(§1) The protein concentrations of the homogenates of mouse brain tissue and cell lysates in vitro were measured using a Bio-Rad protein assay kit (Bio-Rad Laboratories, Hercules, CA), and immunoblotting was performed as we previously described, using primary antibodies (detailed information described in the supplementary Table 1). Western blotting membranes have been cut prior to original western blot images and original western blot images are available at supplementary material.
(Immunoblotting shows a protein as a band on a membrane.)

For another data set, the system named is mice. The data set can be described thus: Safety of chronic optimized dosage regimen in mice. Format: in vivo, mouse. The settings on record: 5 μg/g, i.p. As for the experimental part:
(§2) Os-pep was dissolved in double-deionized distilled water and then prepared in normal saline to obtain the final administered concentration. The AβO, APP/PS1, Adipo^−/− and WT mice were injected i.p. with Os-pep at a dosage of 5 μg/g on alternating days for 45 days. WT, Veh-injected transgenic-APP/PS1 and Adipo^−/− mice were injected with the same volume of double-deionized water and normal saline. The WT control and sham mice as well as the Veh-injected AβO, APP/PS1, Adipo^−/− and HFD mice received the same volume of double-deionized distilled water or normal saline.
We monitored and weighed the mice three times per week to examine the effect of Os-pep dosage regimen (5 µg/g, i.p., on alternating days for 45 days) on the animals’ body weights. At the completion of the treatment, we calculated the average change in the body weight of the mice. At the completion of the treatments and behavioral experiments, blood samples were collected by cardiac puncture of the right atrium. […]

The test system of the next data set is p-PI3K/Akt/GSK3β (Ser 9). Description: Downstream insulin signaling in mouse brain, immunoblot. Format: in vivo. To be noted: AβO-treated, APP/PS1 and Adipo−/− mice, 5 μg/g, i.p., alternating days for 45 days. As to the method: as §2, §1
Data set [2] is described as follows: Body weight measurements of the mice. Format: in vivo, mouse. The settings on record: APP/PS1, HFD and Adipo−/− mice vs Veh-treated, 5 μg/g, i.p., alternating days for 45 days, n = 13/group. As to the method: We monitored and weighed the mice three times per week to examine the effect of Os-pep dosage regimen (5 µg/g, i.p., on alternating days for 45 days) on the animals’ body weights. At the completion of the treatment, we calculated the average change in the body weight of the mice. At the completion of the treatments and behavioral experiments, blood samples were collected by cardiac puncture of the right atrium. The serum was collected from whole blood by centrifugation (3000 rpm for 10 min) at room temperature and was stored at -20 °C until it was processed for biochemical analyses by SCL Labs (Seoul Medical Science Institute) to evaluate various metabolic parameters, e.g., glucose (Glu), free fatty acids (FFA), total cholesterol (TC), triglycerides (TG), high density lipoprotein (HDL) and low density lipoprotein (LDL) levels.

Data set [3] is described as follows: Stability and half-life of Os-pep in mouse plasma. Format: in vitro ADME. The settings on record: 37 °C, LC-MS/MS. As for the experimental part: The stability of Os-pep in mouse plasma was evaluated. An aqueous stock solution of Os-pep was added to each mouse plasma sample (n= 3) at a final concentration of 1 μg/mL. Tubes were placed in a Thermomixer (Eppendorf, Germany) and maintained at 37 °C with rotation at 300 rpm. These samples were incubated for up to 2 h. The amount of peptide remaining after the incubation was immediately determined by liquid chromatography-tandem mass spectrometry (LC-MS/MS). At different time intervals, an aliquot (100 μL) of ice-cold acetonitrile containing 0.1 μg/mL gabapentin (internal standard) was added to a 50 μL aliquot of the sample. Deproteinized samples were analyzed after vortex-mixing and centrifugation.

The subject of another data set is AdipoR1/p-AMPK signaling. The data set can be described thus: AdipoR1/p-AMPK signaling in mouse brain (immunoblot). The settings on record: 5 μg/g, i.p., alternating days for 45 days. Format: in vivo. As for the experimental part: as §2, §1
The test system of data set [4] is p-IRS-1 and p-PI3K/Akt/GSK3β (Ser 9) pathways. The data set can be described thus: Insulin resistance and downstream insulin signaling in APPswe/ind-overexpressing SH-SY5Y cells, immunoblot. It counts as cell-based, human. The settings on record: Os-pep 10 μM. As to the method: Human neuroblastoma SH-SY5Y cells were seeded (in 6-well culture plates for immunoblotting and in chamber slides for immunofluorescence) in DMEM (Dulbecco’s modified Eagle medium) containing 10% fetal bovine serum (FBS) and 1% antibiotics (penicillin-streptomycin) and incubated at 37 °C in humidified air containing 5% CO2. Once the cells reached 70–80% confluence, the cells were transfected using the pCAX vector containing the APPswe/ind gene using Lipofectamine 3000 (Life Technologies) according to the provider’s protocols. AdipoR1 siRNA (h) (SC-60123) and AMPK siRNA (h) (SC-45312) (Santa Cruz Biotechnology, Inc.) were used at a concentration of 10 μM per transfection and expressed for 72 h according to the manufacturer’s protocol (Santa Cruz Biotechnology, Inc.). A negative siRNA (Ambion, Thermo Fisher Scientific) was used as a control. Seventy-two hours after the transfections, the cells were exposed to Os-pep (10 μM) for 12 h and then subjected to immunoblotting and immunofluorescence analyses.
Human neuroblastoma SH-SY5Y cells were treated with 1 µM of insulin for 48 h to produce intrinsic insulin-resistant human neuroblastoma (SH-SY5YIR) cells. After 48 h, SH-SY5YIR cells were overexpressed with human APPswe/ind and subjected with AdipoR1 siRNA which further exposed to 10 nM insulin, Os-pep (10 µM) or compound C (10 µM) for 12 h, and then cell lysates were collected and proceeded accordingly for immunoblotting and ELISA.

A further data set concerns p-IRS-1. The data set can be described thus: Neuronal insulin resistance (p-IRS-1) in mouse brain, immunoblot. It counts as in vivo. To be noted: AβO-treated, APP/PS1, Adipo−/− and HFD mice, 5 μg/g, i.p., alternating days for 45 days. As to the method:
as §2, §1
A separate cohort of animals was used to develop the HFD mouse model. Eight-week-old C57BL/6N male mice were bought from Samtako Bio (Republic of Korea). Mice were housed in the university animal housing facility under a 12 h/12 h light/dark cycle at 23°C and 60 ± 10% humidity, with food and water available ad libitum. […]

Turning to `C[C@@H](O)[C@H](NC(=O)[C@@H]1CCCN1C(=O)CNC(=O)[C@H](CS)NC(=O)[C@@H]1CCCN1C(=O)CNC(=O)[C@H](CCC(N)=O)NC(=O)[C@@H](NC(=O)[C@@H](N)CS)[C@@H](C)O)C(=O)O` [Os-pep] (H-CTQGPCGPT-OH; N-terminus and C-terminus assumed), the “activated caspase-3 and cleaved PARP-1 levels” value in data set [1] is reported as “significantly decreased”. The “liver or kidney dysfunction (serum biochemical parameters)” value in the data set on mice (alternating days for 45 days, APP/PS1, HFD and Adipo−/− mice) was “did not induce liver or kidney dysfunction”. For the same molecule, the “undesirable effects of chronic Os-pep treatment alone” value with mice (on alternating days for 45 days, Os-pep alone) is “did not induce any undesirable effects”. The “p-PI3K/Akt/GSK3β (Ser 9) levels” value in the data set with p-PI3K/Akt/GSK3β (Ser 9) is reported as “reversed the reduction”. In addition, the “fold-increase in body weight” value in data set [2] is recorded as “smaller fold-increase in the body weight”. The “half-life (t1/2)” value in data set [3] (1 μg/mL, incubated up to 2 h, n = 3, first-order kinetics) is recorded as “approximately 2 h”. In data set [3] (300 rpm, after 2 h, n = 3, 0 min set to 100%, read-out: initial concentration remained), the remaining at 2 h, 1 μg/mL was determined as 53%. Further, the half-life at 1 μg/mL in data set [3] (triplicate samples, read-out: Half-life (printed in Fig. 8c) (converted)) was 2.03 h. Also, the “AdipoR1/p-AMPK signaling, AβO-injected mice” value with AdipoR1/p-AMPK signaling (vs AβO-injected mice without Os-pep) is listed as “significantly increased AdipoR1/p-AMPK signaling”. For the same molecule, the “AdipoR1/p-AMPK signaling, APP/PS1 mice” value with AdipoR1/p-AMPK signaling (vs Veh-treated APP/PS1) was “remarkably increased AdipoR1/p-AMPK signaling”. In addition, the “AdipoR1/AMPK levels, Adipo−/− mice” value in the data set with AdipoR1/p-AMPK signaling (vs group without Os-pep) is “significantly increased AdipoR1/AMPK levels”. In addition, the “p-IRS-1 Tyr 632 and p-PI3K/Akt/GSK3β (Ser 9) in insulin-resistant cells” value in data set [4] (APPswe/ind SH-SY5YIR (insulin 1 μM), 12 h) is “significantly activated”. In data set [4] (APPswe/ind-overexpressing SH-SY5Y, AdipoR1 siRNA), the “p-IRS-1 Ser636/312 with AdipoR1 knockdown” value is recorded as “did not downregulate”. In data set [4] (APPswe/ind-transfected SH-SY5Y, AMPK siRNA), the “p-IRS-1 Tyr 632 and p-PI3K/Akt/GSK3β (Ser 9) with AMPK knockdown” value is “did not upregulate”. Also, in the data set with p-IRS-1, the “p-IRS-1 Ser636/312 levels” value is “significantly reducing the increase” and the “p-IRS-1 Tyr 632 levels” value is on record as “significantly increasing”.
